Data set [1] is described as follows: Acid catalyzed dissociation kinetics of Gadopiclenol (isomeric mixture) and of enantiomers pair C coupled with isoserinol in 1.0 M HCl, followed by HPLC. The following applies: 1.0M HCl, 25° C.; fitting of area-time data. Type of data set: physicochemical. As for the experimental part:
The average half-life of the obtained conjugated compounds and of Gadopiclenol (isomeric mixture) were calculated considering the decrease of the HPLC total area over time as described in detail in Example 8. For amide derivatives obtained by reaction of RRR/SSS Gd(PCTA-tris-glutaric acid) with i) R-isoserinol; ii)S-isoserinol; and iii) racemic isoserinol the kX pseudo-first-order rate constants and half-lives (t1/2=ln 2/kX) were also calculated by fitting the area—time data pairs as carried out for RRR/SSS Gd(PCTA-tris-glutaric acid) in Example 7.
The HPLC measurements were performed with Thermo Finnigan LCQ DECA XPPlus system according to the analytical Procedure 2.
HPLC chromatogram of Gadopiclenol collected as isomeric mixture from Example 2 is characterized by the presence of 4 major peaks (identified for convenience as A′, B′, C′ and D′) having the same MS and UV-Vis spectra. However, there is only one signal in the HPLC chromatogram of the complex compounds obtained by coupling the enantiomers pair C with isoserinol, whether it is R, S isoserinol or racemic-isoserinol (FIG. 6). Since, as observed, the chirality of the isoserinol pendant has no influence on the retention time of coupled diastereoisomers, the presence of 4 signals in the HPLC chromatograms of Gadopiclenol (isomeric mixture) could be interpreted by the presence of 4 enantiomer pairs formed with the stereocenters of the of the glutaric acid residue: 1) RRR-SSS (Signal D′), 2) RSR-SRS, 3) RRS-SSR and 4) RSS-SRR.
The progress of the reactions was checked by HPLC over time, plotting the area values of the peaks of the complex as a function of time, as above discussed in Example 7 for Gd(PCTA-tris-glutaric acid) isomers.
As expected, the integral values of A′, B′, C′, and D′ decrease over time, whereas the peak of the free ligand increases. […] The half-life of complexes obtained by coupling the enantiomers pair C with R, S and racemic-isoserinol was also calculated from the half of the area values in the HPLC chromatograms.

Data set [2] can be described thus: Relaxometric properties: longitudinal relaxivity r1. Type of data set: physicochemical. As for the experimental part:
The relaxometric properties of the PCTA-based complex compounds according to the invention have been measured at different magnetic field strengths, i.e. 0.47 and 1.41 T, at 37° C. and in different media (water and human plasma) and compared with relaxivity values measured, at the same conditions, for Gd-Complex having an analogous coordination cage.
The longitudinal water proton relaxation rate (R1=1/T1) was measured at 0.47 T with a Minispec MQ-20 spectrometer (Bruker Biospin, Germany) operating at a proton Larmor frequency of 20 MHz; MR experiments at 1.41 T were performed using a Minispec MQ-60 spectrometer (Bruker Biospin, Germany) operating at a proton Larmor frequency of 60 MHz.
All test articles were used as supplied and diluted in the selected medium (water or human plasma) by weighting the required amount of paramagnetic chelated complex to get a 5 or 10 mM starting solution.
Five different concentration samples (0.1, 0.25, 0.5, 0.75 and 1 mM) for each medium have been prepared by further dilution of the starting 5 or 10 mM solution.
Relaxivity measurements were performed at 0.47 T and 1.41 T at a preset temperature sample of 37° C., kept constant by means of a thermostatic bath connected to the sample holder of the spectrometer. The five sample solutions have been preliminary pre-heated at 37° C. in an external thermostatic bath and then left 10 minutes inside the internal bath to assure the stabilization of the temperature. Longitudinal relaxation time T1 was measured by means of a standard inversion recovery sequence, where the inversion time (TI) was varied from 10 ms to at least 5 times T1 in 15 steps. Statistical analysis (mono-exponential fitting for T1 measurement, linear fitting for the evaluation of longitudinal relaxivity) was performed by Mathematica® (Wolfram, USA). Errors on the estimated parameters were evaluated by the fitting procedure.

For data set [3] the following is noted: 1.0M HCl (pH 0), 25° C.; literature value; cited from earlier work.
The conditions of data set [4]: 1.0M HCl, 25° C.; literature value; cited from earlier work.
The conditions of data set [5]: pH 0.
Method: In order to investigate the kinetic inertness of the racemic mixture of the Gd(PCTA-tris-glutaric acid) and, particularly, of the four enantiomer pairs thereof separated by HPLC, we investigated their dissociation reactions taking place under acidic conditions. A large excess of H^+ ([HCl]=1.0 M) was in particular exploited in order to guarantee the pseudo-first order kinetic conditions.
A solution of Gd(PCTA-tris-glutaric acid) (isomeric mixture) in 1 M HCl was prepared and was analysed over the time as explained in Example 7.
In particular, the area value for each of the A, B, C, and D peaks was assessed over the time by HPLC.
The decrease of the integral area values of signals of A, B, C, and D was thus assessed and plotted as a function of the time.
kX pseudo-first-order rate constants (where kX is =kA, kB, kC and kD respectively), characterizing the dissociation rate of the different enantiomer pairs of the Gd(PCTA-tris-glutaric acid) complex and half-lives (t1/2=ln2/kX) were then calculated by fitting the area —time data pairs, as explained in details in Example 7. The average half-life value for the isomeric mixture of Gd(PCTA-tris-glutaric acid) was also obtained, by considering the percentage composition of the mixture. […]
For data set [6] the following is noted: cited from earlier work.
The conditions of data set [7]: cited from earlier work. This is another data set of the same source.

The values below come from patent US12036289B2, “Gadolinium bearing PCTA-based contrast agents” (BRACCO IMAGING S.P.A., priority 2018, dated 2024).

Where two headings read alike, the source gives them in different places. Marks after values point to notes of the source that are not given here.

`O=C(CCC(C(=O)[O-])N1CCN(C(CCC(=O)NCC(O)CO)C(=O)[O-])Cc2cccc(n2)CN(C(CCC(=O)NCC(O)CO)C(=O)[O-])CC1)NCC(O)CO.[Gd+3]` (single isomer, unassigned) [Enantiomers pair C + R-isoserinol]: the “kx (s^−1) pseudo-first-order rate constant of acid catalyzed dissociation” value in data set [1] was “(4.9 ± 0.4) × 10^−6 s^−1”. In data set [2], the “r1 (mM^−1s^−1) H2O, 0.5T, 37° C.” value was 12.9 ± 0.1 mM⁻¹ s⁻¹ and the “r1 (mM^−1s^−1) HSA, 1.5T, 37° C.” value is 14.0 ± 0.3 mM⁻¹ s⁻¹.

Regarding `O=C(CCC(C(=O)[O-])N1CCN(C(CCC(=O)NCC(O)CO)C(=O)[O-])Cc2cccc(n2)CN(C(CCC(=O)NCC(O)CO)C(=O)[O-])CC1)NCC(O)CO.[Gd+3]` (single isomer, unassigned) [Enantiomers pair C + S-isoserinol], the “kx (s^−1) pseudo-first-order rate constant of acid catalyzed dissociation” value in data set [1] is given as “(4.6 ± 0.3) × 10^−6 s^−1”. Besides, in data set [2], the “r1 (mM^−1s^−1) H2O, 0.5T, 37° C.” value was 12.9 ± 0.2 mM⁻¹ s⁻¹ and the “r1 (mM^−1s^−1) HSA, 1.5T, 37° C.” value was found to be 13.9 ± 0.2 mM⁻¹ s⁻¹.

As to `O=C(CCC(C(=O)[O-])N1CCN(C(CCC(=O)NCC(O)CO)C(=O)[O-])Cc2cccc(n2)CN(C(CCC(=O)NCC(O)CO)C(=O)[O-])CC1)NCC(O)CO.[Gd+3]` (single isomer, unassigned) [Enantiomers pair C + racemic-isoserinol], the “kx (s^−1) pseudo-first-order rate constant of acid catalyzed dissociation” value in data set [1] is recorded as “(4.5 ± 0.4) × 10^−6 s^−1”. In addition, in data set [2], the “r1 (mM^−1s^−1) H2O, 0.5T, 37° C.” value is 13.0 ± 0.1 mM⁻¹ s⁻¹ and the “r1 (mM^−1s^−1) HSA, 1.5T, 37° C.” value is 14.0 ± 0.2 mM⁻¹ s⁻¹.

Regarding `O=C([O-])CN1CCN(CC(=O)[O-])CCN(CC(=O)O)CCN(CC(=O)[O-])CC1.[Gd+3]` [Dotarem, Gd-DOTA], the “k1 (s^−1) rate constant of acid catalyzed dissociation” value in data set [3] is 8e-06 s⁻¹. For the same compound, the “kx (s^−1) rate constant of acid catalyzed dissociation” value in data set [4] is 8e-06 s⁻¹.

As to `O=C([O-])CN1CCN(CC(=O)[O-])Cc2cccc(n2)CN(CC(=O)[O-])CC1.[Eu+3]` [Eu(PCTA), europium complex of the 3,6,9,15-tetraazabicyclo[9.3.1]pentadeca-1(15),11,13-triene-3,6,9,-triacetic acid], the “k1 (s^−1) rate constant of acid catalyzed dissociation” value in data set [3] is 0.000508 s⁻¹. For the same compound, the “kx (s^−1) rate constant of acid catalyzed dissociation” value in data set [4] is 0.000508 s⁻¹.

For the compound RRR/SSS Gd(PCTA-tris-glutaric acid), the “r1 (mM^−1s^−1) H2O, 0.5T, 37° C.” value in data set [2] and in data set [2] (listed as enantiomers pair C) was 9.3 ± 0.1 mM⁻¹ s⁻¹ each time. Further, the “t1/2 (hour) dissociation half-life (t1/2 = ln2/kx)” value in data set [5] is 120 ± 3 h.

Take “gadolinium chelate of 2,2′,2″-(3,6,9-triaza-1(2,6)-pyridinacyclodecaphane-3,6,9-triyl)tris(5-((2,3-dihydroxypropyl)amino)-5-oxopentanoic acid) [Gadopiclenol (isomeric mixture)]”: the “stability (log K^term)” value in data set [6] (Investigative Radiology 2019, Vol 54, (8), 475-484) is 18.7. Also, the “thermodynamic equilibrium constant (log K^term)” value in data set [6] (reported in EP 2988756) was 14.9. The “r1 (mM^−1s^−1) H2O, 0.5T, 37° C.” value in data set [7] (H2O, 0.5T, 37° C., value reported in EP 1931673) is recorded as 11* mM^−1s^−1. The “r1 (mM^−1s^−1) HSA, 1.5T, 37° C.” value in data set [7] (HSA, 1.5T, 37° C., value reported in Invest. Radiol. 2015, 50, 835-842) is 12.8 ± 1.3** mM^−1s^−1. In addition, the relaxivity in data set [7] (in human serum (37° C., 1.41 T), Investigative Radiology 2019, Vol 54, (8), 475-484) is 12.8 mM⁻¹ s⁻¹; in data set [7] (in water, at 0.5 T, 37° C., reported in EP1931673), 11 mM^−1s^−1Gd^−1.
